Source: ChEMBL document CHEMBL5725801, “Fused heterocyclic compounds as CaM kinase inhibitors” (2018)

Assay: CaMKII Cell-Based Activity: CaMKII activity in neonatal rat ventricular myocytes (NRVM) was measured by monitoring the phosphorylation level of phospholamban using high-content imaging. NRVMs were plated in a clear bottom 384-well plate in medium supplemented with 10% fetal bovine serum (FBS) and incubated at 37° C., 5% CO2 overnight. The medium was changed to a serum-free medium and compounds were dosed to the cells. The cells were incubated at 37° C., 5% CO2 for 4 hours and were then treated with 100 nM ATX-II (Alomone Labs) to activate CaMKII. 10 minutes after the addition of ATX-II, the cells were fixed with 4% formaldehyde followed by permeabilization with 0.1% triton X100. The fixed cells were stained with an anti-phospho-phospholamban primary antibody (Santa Cruz Biotechnology) and an Alexa488-labeled anti-rabbit IgG secondary antibody (Life Technologies Corporation) as well as Hoechst 33342 (Life Technologies Corporation). The cells were imaged using an ArrayScan VTI (Cellomics) and analyzed for cells containing a positive fluorescent signal at 485 nm, reported as % responder. The % responders were plotted against the compound concentration to determine the compounds EC50.

SMILES	EC50
CCN(CC)[C@@H](C)CNC(=O)c1cc(OC[C@H]2CCCO2)nc(-c2cnn3ccc(-c4cccs4)nc23)c1	0.0278 µM
CCN(CC)CCNC(=O)c1cc(-c2cnn3ccc(-c4cccs4)nc23)nc(N2CC(OC)C2)c1	0.0909 µM
CCCNC(CNC(=O)c1ccnc(-c2cnn3ccc(-c4ccccc4)nc23)c1)C(C)C (stereo unspecified)	0.0429 µM
CCN(CC)[C@@H](C)CNC(=O)c1cc(OCc2ccc[n+]([O-])c2)nc(-c2cnn3ccc(-c4cccs4)nc23)c1	0.0685 µM
CCN(CC)[C@@H](C)CNC(=O)c1cc(NCc2ncc[nH]2)nc(-c2cnn3ccc(-c4cccs4)nc23)c1	0.148 µM
CCN(CC)[C@@H](C)CNC(=O)c1cc(-c2cnn3ccc(-c4cccs4)nc23)nc(N2CC[C@@H](N)C2)c1	0.0688 µM
CCN(CC)[C@@H](C)CNC(=O)c1cc(NC[C@@H](C)O)nc(-c2cnn3ccc(-c4cccs4)nc23)c1	0.0327 µM
COC1CN(c2cc(C(=O)N3CC4CCC(C3)NC4)cc(-c3cnn4ccc(-c5ccccc5)nc34)n2)C1 (stereo unspecified)	0.0956 µM
CCN[C@@H](C)CNC(=O)c1cc(-c2cnn3ccc(-c4cccs4)nc23)nc(N2CC(O)C2)c1	0.604 µM
O=C(c1ccnc(-c2cnn3ccc(-c4cccs4)nc23)c1)N1C2CCNCC1CC2 (stereo unspecified)	0.187 µM
CCC(C)N[C@@H](C)CNC(=O)c1ccnc(-c2cnn3ccc(-c4ccccc4)nc23)c1 (stereo partly specified)	0.0253 µM
CCN(CC)[C@@H](C)CNC(=O)c1cc(NCCCO)nc(-c2cnn3ccc(-c4cccs4)nc23)c1	0.0494 µM
NC[C@H]1CCCCN1C(=O)c1cc(-c2cnn3ccc(-c4ccccc4)nc23)ncc1Cl	0.0352 µM
CCN(CC)[C@@H](C)CNC(=O)c1cc(-c2cnn3ccc(-c4cccs4)nc23)nc(N2CC(O)(CC)C2)c1	0.0247 µM
CCN(CC)[C@@H](C)CNC(=O)c1cc(-c2cnn3ccc(-c4cccs4)nc23)nc(N2CC[C@H]2C(N)=O)c1	0.036 µM
CCC(CNC(=O)c1cc(-c2cnn3ccc(-c4cccs4)nc23)nc(N2CC[C@H]2C(=O)NC)c1)N(CC)CC (stereo partly specified)	0.0368 µM
CCN(CC)[C@@H](C)CNC(=O)c1cc(-c2cnn3ccc(-c4cccs4)nc23)nc(N2CC(C)(O)C2)c1	0.0214 µM
CCN[C@@H](C)CNC(=O)c1ccnc(-c2cnn3ccc(-c4cccs4)nc23)c1	0.033 µM
O=C(c1ccnc(-c2cnn3ccc(-c4cccs4)nc23)c1)N1CC2CNC(COC2)C1 (stereo unspecified)	0.259 µM
CCN(CC)[C@@H](C)CNC(=O)c1cc(-c2cnn3ccc(-c4cccs4)nc23)nc(N2CC(OC)C2)c1	0.0137 µM
CCN(CCN)C(=O)c1ccnc(-c2cnn3ccc(-c4ccccc4)nc23)c1	0.169 µM
O=C(c1ccnc(-c2cnn3ccc(-c4ccccc4)nc23)c1)N1CCCCC12CCCNC2 (stereo unspecified)	0.0453 µM
COC1CN(c2cc(C(=O)NCC34CCCN3CCC4)cc(-c3cnn4ccc(-c5ccccc5)nc34)n2)C1	0.0696 µM
O=C(NCC12CCCN1CCC2)c1ccnc(-c2cnn3ccc(-c4cccs4)nc23)c1	0.0415 µM
NC[C@H]1CCCN1C(=O)c1ccnc(-c2cnn3ccc(-c4cccs4)nc23)c1	0.0583 µM
CCN(CC)C(C)CNC(=O)c1ccnc(-c2cnn3ccc(-c4cccs4)nc23)c1 (stereo unspecified)	0.0354 µM

SMILES	EC50
CCCN(CC)[C@@H](C)CNC(=O)c1cc(-c2cnn3ccc(-c4cccs4)nc23)nc(N2CC[C@H]2C(=O)NC)c1	0.0136 µM
C[C@@H](NC(=O)c1ccnc(-c2cnn3ccc(-c4cccs4)nc23)c1)[C@@H]1CCCN1	0.518 µM
CCN(CC)[C@@H](C)CNC(=O)c1cc(NS(C)(=O)=O)nc(-c2cnn3ccc(-c4cccs4)nc23)c1	0.107 µM
CCN(CC)[C@@H](C)CNC(=O)c1cc(-c2cnn3ccc(-c4cccs4)nc23)nc(N2CC(S(=O)(=O)NC)C2)c1	0.0505 µM
CCN(CC)[C@@H](C)CNC(=O)c1ccnc(-c2cnn3ccc(-c4cccs4)nc23)c1	0.0214 µM
O=C(NCC1CCCCN1)c1ccnc(-c2cnn3ccc(-c4ccccc4)nc23)c1 (stereo unspecified)	0.955 µM
CCC(N)CNC(=O)c1ccnc(-c2cnn3ccc(-c4ccccc4)nc23)c1 (stereo unspecified)	0.0809 µM
CCN(CC)[C@@H](C)CNC(=O)c1cc(Nc2cn[nH]c2)nc(-c2cnn3ccc(-c4cccs4)nc23)c1	0.00987 µM
CN(CCn1ccnc1)c1cc(C(=O)N2CC3CCC(C2)NC3)cc(-c2cnn3ccc(-c4cccs4)nc23)n1 (stereo unspecified)	0.449 µM
O=C(c1cc(-c2cnn3ccc(-c4cccs4)nc23)nc(N2CCN(C3COC3)CC2)c1)N1CC2CCC(C1)NC2 (stereo unspecified)	0.0818 µM
CCN(CC)[C@@H](C)CNC(=O)c1cc(-c2cnn3ccc(-c4cccs4)nc23)nc(N2CC(F)(F)C2)c1	0.0173 µM
CCN(CC)[C@@H](C)CNC(=O)c1cc(-c2cnn3ccc(-c4cccs4)nc23)nc(N2CC[C@H]2C(=O)NC2CC2)c1	0.028 µM
CCNC(CNC(=O)c1ccnc(-c2cnn3ccc(-c4ccccc4)nc23)c1)C(C)C (stereo unspecified)	0.107 µM
COC1CN(c2cc(C(=O)NC[C@H](C)N)cc(-c3cnn4ccc(-c5ccccc5)nc34)n2)C1	0.122 µM
C[C@@H](CNC(=O)c1ccnc(-c2cnn3ccc(-c4cccs4)nc23)c1)NCCF	0.0952 µM
NC[C@@H]1CCCCN1C(=O)c1cc(Cl)nc(-c2cnn3ccc(-c4cccs4)nc23)c1	0.243 µM
O=C(NCC1CCCCN1)c1ccnc(-c2cnn3ccc(-c4cccs4)nc23)c1 (stereo unspecified)	0.288 µM
CCN(CC)[C@@H](C)CNC(=O)c1cc(-c2cnn3ccc(-c4cccs4)nc23)nc(N2CC(F)C2)c1	0.0205 µM
Nc1cc(C(=O)N2C3CCNCC2CC3)cc(-c2cnn3ccc(-c4cccs4)nc23)n1 (stereo unspecified)	0.111 µM
CCN(CC)[C@@H](C)CNC(=O)c1cc(-c2cnn3ccc(-c4cccs4)nc23)nc(N2CC(NS(=O)(=O)CC)C2)c1	0.0257 µM
CCN(CC)[C@@H](C)CNC(=O)c1cc(-c2cnn3ccc(-c4cccs4)nc23)nc(N2CC(C(F)(F)F)C2)c1	0.0544 µM
NC[C@@H]1CCCCN1C(=O)c1cc(Cl)nc(-c2cnn3ccc(-c4ccccc4)nc23)c1	0.213 µM
CCN(CC)[C@@H](C)CNC(=O)c1cc(-c2cnn3ccc(-c4cccs4)nc23)nc(N2CCC3(COC3)C2)c1	0.0182 µM
CCN(CC)[C@@H](C)CNC(=O)c1cc(NCCN2CC(F)(F)C2)nc(-c2cnn3ccc(-c4cccs4)nc23)c1	0.0456 µM
CC(C)C(N)CNC(=O)c1ccnc(-c2cnn3ccc(-c4ccccc4)nc23)c1 (stereo unspecified)	0.0441 µM
CCN(CC)[C@@H](C)CNC(=O)c1cc(-c2cnn3ccc(-c4cccs4)nc23)nc(C(F)(F)F)c1	0.102 µM

Further compounds by falling EC50, results first:

EC50	SMILES
7.29 µM	CCN(CC)[C@@H](C)CNC(=O)c1cc(NC2COC2)nc(-c2cnn3ccc(-c4cccs4)nc23)c1
0.794 µM	CCN(CC)[C@@H](C)CNC(=O)c1cc(-c2cnn3ccc(-c4cccs4)nc23)nc(-c2cnn3ccc(-c4cccs4)nc23)c1
0.326 µM	COC1CN(c2cc(C(=O)NC[C@@H]3CCCN3C)cc(-c3cnn4ccc(-c5cccs5)nc34)n2)C1
0.279 µM	CC[C@@]1(CNC(=O)c2ccnc(-c3cnn4ccc(-c5ccccc5)nc34)c2)CCCN1
0.197 µM	CCN(CC(F)F)[C@@H](C)CNC(=O)c1ccnc(-c2cnn3ccc(-c4cccs4)nc23)c1
0.139 µM	COC1CN(c2cc(C(=O)NC[C@H](C)N)cc(-c3cnn4ccc(-c5cccs5)nc34)n2)C1
0.136 µM	CCN(CC)CCNC(=O)c1cc(NCCO)nc(-c2cnn3ccc(-c4cccs4)nc23)c1
0.132 µM	O=C(NC[C@@H]1CCN1)c1ccnc(-c2cnn3ccc(-c4cccs4)nc23)c1
0.129 µM	CC[C@@]1(CNC(=O)c2ccnc(-c3cnn4ccc(-c5cccs5)nc34)c2)CCCN1
0.11 µM	CC(C)(N)CNC(=O)c1ccnc(-c2cnn3ccc(-c4ccccc4)nc23)c1
0.107 µM	CCN(CC)[C@@H](C)CNC(=O)c1cc(-c2cnn3ccc(-c4cccs4)nc23)nc(N2CC(CO)(CO)C2)c1
0.103 µM	CCN(CC)[C@@H](C)CNC(=O)c1cccc(-c2cnn3ccc(-c4cccs4)nc23)n1
0.0615 µM	CCN(CC)[C@@H](C)CNC(=O)c1cc(-c2cnn3ccc(-c4cccs4)nc23)nc(N2CC(F)(F)C(F)(F)C2)c1
0.0561 µM	CCN(CC)[C@@H](C)CNC(=O)c1cc(OCc2cccnc2)nc(-c2cnn3ccc(-c4cccs4)nc23)c1
0.0553 µM	CCN(CC)[C@@H](C)CNC(=O)c1cc(OCC2(C)COC2)nc(-c2cnn3ccc(-c4cccs4)nc23)c1
0.0488 µM	CCC(=O)Nc1cc(C(=O)NC[C@H](C)N(CC)CC)cc(-c2cnn3ccc(-c4cccs4)nc23)n1
0.0429 µM	COC1CN(c2cc(C(=O)N3CC[C@H](N)C3)cc(-c3cnn4ccc(-c5ccccc5)nc34)n2)C1
0.0339 µM	CCN(CC)[C@@H](C)CNC(=O)c1cc(-c2cnn3ccc(-c4cccs4)nc23)nc(N2CC[C@H]2C(=O)N2CC3CC3C2)c1 (stereo partly specified)
0.032 µM	CCN(CC)[C@@H](C)CNC(=O)c1cc(OCCOC)nc(-c2cnn3ccc(-c4cccs4)nc23)c1
0.0315 µM	CCN(CC)[C@@H](C)CNC(=O)c1cc(-c2cnn3ccc(-c4cccs4)nc23)nc(N2CC(NS(=O)(=O)C(C)C)C2)c1
0.0292 µM	NC[C@H]1CCCCN1C(=O)c1cc(-c2cnn3ccc(-c4ccccc4)nc23)nc(C2CC2)c1
0.0285 µM	CCNC(=O)[C@@H]1CCN1c1cc(C(=O)NC[C@H](C)N(CC)CC)cc(-c2cnn3ccc(-c4cccs4)nc23)n1
0.0252 µM	CCN(CC)C(=O)[C@@H]1CCN1c1cc(C(=O)NC[C@H](C)N(CC)CC)cc(-c2cnn3ccc(-c4cccs4)nc23)n1
0.0205 µM	CCN(CC)[C@@H](C)CNC(=O)c1cc(NC(=O)C(C)C)nc(-c2cnn3ccc(-c4cccs4)nc23)c1
0.0199 µM	CCN(CC)[C@@H](C)CNC(=O)c1cc(-c2cnn3ccc(-c4cccs4)nc23)nc(N2CC(OC(F)F)C2)c1
0.0151 µM	C[C@@H](CNC(=O)c1ccnc(-c2cnn3ccc(-c4cccs4)nc23)c1)NCC1CC1
0.0145 µM	CCN(CC)[C@@H](C)CNC(=O)c1cc(-c2cc[nH]n2)nc(-c2cnn3ccc(-c4cccs4)nc23)c1
0.00937 µM	CCN(CC)[C@@H](C)CNC(=O)c1cc(-c2c(C)n[nH]c2C)nc(-c2cnn3ccc(-c4cccs4)nc23)c1
0.00828 µM	CCN(CC)[C@@H](C)CNC(=O)c1cc(-c2cnn3ccc(-c4cccs4)nc23)nc(N2CC(C)(OC)C2)c1
